Patent publication US20260285880A1, “SUBSTITUTED DIHYDROTHIENOPYRIMIDINE COMPOUND, PREPARATION METHOD THEREFOR, AND USE THEREOF” (SHANGHAI YIDI BIOTECHNOLOGY CO., LTD., priority 2023, published 2026)
Like-named read-outs stand apart in the source and are kept apart here.

Tests used:
PDE4B2 [1] = target: T1, PDE4B2 (Homo sapiens, UniProt Q07343); settings: read-out: PDE4B2 IC50; enzyme assay
Flpin-293-PDE4B2 cells [2] = target: T2, Flpin-293-PDE4B2 cells (Homo sapiens, UniProt Q07343); settings: for IC50: read-out: PDE4B2 IC50 Cell, Foskolin; for Cell Inhibition % @1 nM: 0.001 µM; for Cell Inhibition % @10 nM: 0.01 µM; for Cell Inhibition % @100 nM: 0.1 µM
Description: (§1) All compounds were dissolved in DMSO into 10 mM or 20 mM stock solutions. The compound to be tested was diluted with DMSO with a 3-fold gradient. […] 40 nL/well of the compound or a DMSO control was transferred to a 384-well plate by using Echo 550 instrument. […] The plate was incubated at 37° C. for 30 minutes. Eu-cAMP tracer and Ulight-anti-cAMP were frozen and thawed and diluted in a lysis buffer. 10 of μl Eu-cAMP tracer was added to an experimental well, and 10 μl of Ulight-anti-cAMP was added to the experimental well. The reaction plate was centrifuged at 200 g at room temperature for 30 s and then left to stand at 25° C. for 1 h, and data was then collected by Envision. Inhibition %=100−(Signal compound−SignalAve positive control)/(SignalAve negative control−SignalAve positive control)×100.

PDE4D2 = PDE4D2 (Homo sapiens, UniProt Q08499); assay: PDE4D2 enzyme experiment (AMP-Glo)
PDE4B2 [3] = target: T1, PDE4B2; assay: biochemical; settings: for inhibition at 0.01 µM: read-out: PDE4B2 Enzyme Inhibition % @10 nM; for inhibition at 0.1 µM: read-out: PDE4B2 Enzyme Inhibition % @100 nM
Flpin-293-PDE4B2 cells [4] = target: T2, Flpin-293-PDE4B2 cells; assay: cell-based; settings: for inhibition at 0.1 µM: read-out: Cell Inhibition % @100 nM, 100 nM, Flpin-293-PDE4B2 cells; for inhibition at 0.01 µM: read-out: Cell Inhibition % @10 nM, 10 nM, Flpin-293-PDE4B2 cells
Description: as §1

[5] = read-out: PDE4D2 IC50 Binding, enzyme assay

T2 sequence (Q07343 1-564 isoform Q07343-2): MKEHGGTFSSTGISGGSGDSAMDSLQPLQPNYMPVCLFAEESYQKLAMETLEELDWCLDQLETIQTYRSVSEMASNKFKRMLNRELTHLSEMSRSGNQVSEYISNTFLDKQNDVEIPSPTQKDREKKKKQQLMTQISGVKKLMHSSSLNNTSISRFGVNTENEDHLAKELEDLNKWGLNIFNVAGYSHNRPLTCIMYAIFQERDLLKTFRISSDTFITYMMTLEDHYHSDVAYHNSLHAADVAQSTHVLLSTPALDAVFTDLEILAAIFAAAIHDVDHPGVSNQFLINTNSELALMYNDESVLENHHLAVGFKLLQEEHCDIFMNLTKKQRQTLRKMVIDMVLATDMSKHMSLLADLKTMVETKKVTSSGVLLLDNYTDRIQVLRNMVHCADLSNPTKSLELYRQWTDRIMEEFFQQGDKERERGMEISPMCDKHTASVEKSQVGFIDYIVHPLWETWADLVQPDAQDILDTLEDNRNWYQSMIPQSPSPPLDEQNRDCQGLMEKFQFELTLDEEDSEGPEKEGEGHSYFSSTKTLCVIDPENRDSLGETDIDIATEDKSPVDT
T1 sequence (Q07343 1-564 isoform Q07343-2, species assumed): as the sequence (Q07343 1-564 isoform Q07343-2) above
Sequence of PDE4D2 (Q08499 303-809 limits assumed): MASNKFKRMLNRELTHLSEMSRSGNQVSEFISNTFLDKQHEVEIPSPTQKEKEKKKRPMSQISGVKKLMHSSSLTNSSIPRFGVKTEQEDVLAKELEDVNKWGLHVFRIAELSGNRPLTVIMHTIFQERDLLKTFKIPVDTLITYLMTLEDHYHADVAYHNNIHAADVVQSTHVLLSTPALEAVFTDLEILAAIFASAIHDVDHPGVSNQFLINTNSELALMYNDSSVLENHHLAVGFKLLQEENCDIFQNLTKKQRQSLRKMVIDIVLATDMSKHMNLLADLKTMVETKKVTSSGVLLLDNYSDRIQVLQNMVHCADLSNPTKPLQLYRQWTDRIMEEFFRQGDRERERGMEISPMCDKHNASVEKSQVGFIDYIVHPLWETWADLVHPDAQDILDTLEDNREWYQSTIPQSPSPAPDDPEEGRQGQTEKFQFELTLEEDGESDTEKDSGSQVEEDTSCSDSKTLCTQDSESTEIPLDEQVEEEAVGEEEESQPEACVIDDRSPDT

For `C[C@H]1c2ccc(N3CCCC3)cc2CCN1c1nc2c(c(NC3(CO)CCC3)n1)[S+]([O-])CC2` (stereo partly drawn) [Compound 167], the IC50 (PDE4B2 [1]) was 0.087 nM, the IC50 (Flpin-293-PDE4B2 cells [2]) was 20.7 nM and the IC50 (PDE4D2; [5]) was 0.993 nM.
In the case of `N#CC1CCN(c2ccc3c(c2)CCN(c2nc4c(c(NC5(CO)CCC5)n2)[S+]([O-])CC4)C3)C1` (stereo not drawn) [Compound 160], the IC50 (PDE4B2 [1]) is reported as 0.224 nM, the “Cell Inhibition % @1 nM” value (Flpin-293-PDE4B2 cells [2]) is reported as 15.06% and the “Cell Inhibition % @10 nM” value (Flpin-293-PDE4B2 cells [2]) is reported as 75.05%. The “Cell Inhibition % @100 nM” value (Flpin-293-PDE4B2 cells [2]) was 99.84% and the IC50 (PDE4D2; [5]) was 0.748 nM.
With `[O-][S+]1CCc2nc(N3CCc4cc(N5CCCC5C(F)(F)F)ccc4C3)nc(NC3(CO)CCC3)c21` (stereo not drawn) [Compound 158] the IC50 (PDE4B2 [1]) was 0.273 nM, the “Cell Inhibition % @1 nM” value (Flpin-293-PDE4B2 cells [2]) was 14.79% and the “Cell Inhibition % @10 nM” value (Flpin-293-PDE4B2 cells [2]) was 61.64%. For the same compound, the “Cell Inhibition % @100 nM” value (Flpin-293-PDE4B2 cells [2]) was 99.33% and the IC50 (PDE4D2; [5]) was 0.653 nM.
In the case of `[O-][S@+]1CCc2nc(N3CCc4c(ccc5[nH]ncc45)C3)nc(NC3(CO)CCC3)c21` [Compound 118, (R)-4-((1-(hydroxymethyl)cyclobutyl)amino)-2-(3,6,8,9-tetrahydro-7H-pyrazolo[4,3-f]isoquinolin-7-yl)-6,7-dihydrothieno[3,2-d]pyrimidine 5-oxide], the IC50 (PDE4B2 [3]) is reported as 0.414 nM and the IC50 (PDE4D2) is reported as 0.748 nM.
For `[O-][S+]1CCc2nc(N3CCc4cc(N5CCCC5C(F)(F)F)ccc4C3)nc(NC3(CO)CCC3)c21` (stereo not drawn) [Compound 157], the “Cell Inhibition % @10 nM” value (Flpin-293-PDE4B2 cells [2]) was 23.21%, the inhibition at 0.001 µM (Flpin-293-PDE4B2 cells [4]; read-out: Cell Inhibition % @1 nM, 1 nM, Flpin-293-PDE4B2 cells) was 8.27% and the inhibition at 0.1 µM (Flpin-293-PDE4B2 cells [4]) was 83.1%.
With `O=[N+]([O-])c1ccc2c(c1)CN(c1nc3c(c(NC4(CO)CCC4)n1)[S+]([O-])CC3)C2` (stereo not drawn) [Compound 61] the inhibition at 0.01 µM (Flpin-293-PDE4B2 cells [4]) was 17.7%, the inhibition at 0.1 µM (Flpin-293-PDE4B2 cells [4]) was 55.2% and the inhibition at 0.01 µM (PDE4B2 [3]) was 70.9%. The inhibition at 0.1 µM (PDE4B2 [3]) was 98.2%.
`Cn1nc2c(c1Cl)CN(c1nc3c(c(NC4(CO)CCC4)n1)[S+]([O-])CC3)CC2` (stereo not drawn) [Compound 58] showed an inhibition at 0.01 µM (Flpin-293-PDE4B2 cells [4]) of 15.9%, an inhibition at 0.1 µM (Flpin-293-PDE4B2 cells [4]) of 57.1% and an inhibition at 0.01 µM (PDE4B2 [3]) of 68.7%. The inhibition at 0.1 µM (PDE4B2 [3]) was 97.5%.
In the case of `C[C@@H]1c2ccc(Cl)cc2CCN1c1nc2c(c(NC3(CO)CCC3)n1)[S@+]([O-])CC2` [Compound 29], the IC50 (Flpin-293-PDE4B2 cells [2]) is reported as 20.9 nM.
